{"source": "patent US20040019092A1", "about": "“Non-peptide somatostatin receptor ligands” (priority 2001, published 2004)", "target": "T1, SS-1 sites (sst2 receptors) (Rattus norvegicus, UniProt P30680)", "T1 construct": "from tissue; host or cells: Wistar rat cerebral cortex and hippocampus homogenate", "T1 sequence (P30680 whole entry)": "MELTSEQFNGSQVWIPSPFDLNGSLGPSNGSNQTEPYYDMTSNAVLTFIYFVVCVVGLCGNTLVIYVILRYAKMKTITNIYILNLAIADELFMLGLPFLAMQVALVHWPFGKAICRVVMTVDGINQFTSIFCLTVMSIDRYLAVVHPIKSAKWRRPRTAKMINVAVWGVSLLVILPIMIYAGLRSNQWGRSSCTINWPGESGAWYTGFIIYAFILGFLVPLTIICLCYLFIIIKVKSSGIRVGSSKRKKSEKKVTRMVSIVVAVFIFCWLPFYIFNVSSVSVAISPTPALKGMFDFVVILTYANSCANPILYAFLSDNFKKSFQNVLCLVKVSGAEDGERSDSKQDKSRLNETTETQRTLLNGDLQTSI", "test": "Ex-vivo binding of [^125I]-labeled Tyr^3 analogue of Octreotride (SS-1/sst2) in rat cortex and hippocampus after s.c. dosing", "parameters": "species or system Wistar rats", "conditions": "for NS non specific binding, individual animals / NS non specific binding, mean / SB specific binding, individual animals / SB specific binding, mean / TB total binding, individual animals / TB total binding, mean / percent specific binding remaining compared to controls: Tyr^3-Oct, 60 min", "description": "Ex-vivo binding was used to determine to whether compound 14 (a potent sst2 receptor selective hydantoin) when applied peripherally to rates can cross the blood brain barrier, as robust behavioral models are not fully characterized and blood-brain penetration models are not routinely available. […] The rats were given saline or drug sub-cutaneously at the indicated dose (in saline) and killed 60 minutes after application with CO2. The brain was removed and placed on ice; the cerebral cortex and hippocampus were dissected out and weighted. […] The homogenate was stored on ice and used immediately or deep frozen (-70° C.) until used (1-3 days). […] The filters were dried and counted in a Wallac Beta plate counter. The tables list the effects of compound 14 on cortex (Table 6) and hippocampus (Table 7) binding at the doses and times indicated (see also FIGS. 3 and 4). TB=total binding, NS=non specific binding, SB=specific binding. The values are indicated in cpm for individual animals, mean, n=number of animals, sem=standard error of the mean; percent=% specific binding remaining following treatment compared to controls.", "note": "Several values for one entry are separate records, joined by “and”; a condition that tells them apart may be missing. Equal values may be shown once."}
{"compound": "Cc1cccc2c(CC3C(=O)N(CCCCCN)C(=O)N3S(=O)(=O)c3ccc(Oc4ccc(O)cc4)c(C#N)c3)c[nH]c12", "note": "(stereo not drawn) [Compound 14]", "values": [{"measurement": "maximal decrease of sst2 (SS-1) binding", "setting": "cortex and hippocampus, 10 mg/kg subcutaneous, 60 minutes", "value": "about 20%"}, {"measurement": "NS non specific binding, individual animals", "setting": "cortex, 0.3 mg/kg s.c.", "value": "2753 cpm and 2634 cpm and 2685 cpm"}, {"measurement": "NS non specific binding, mean", "setting": "cortex, 0.3 mg/kg s.c.", "value": 2691, "unit": "cpm"}, {"measurement": "SB specific binding, individual animals", "setting": "cortex, 0.3 mg/kg s.c.", "value": "22427 cpm and 21257 cpm and 23789 cpm"}, {"measurement": "SB specific binding, mean", "setting": "cortex, 0.3 mg/kg s.c.", "value": 22491, "unit": "cpm"}, {"measurement": "TB total binding, individual animals", "setting": "cortex, 0.3 mg/kg s.c.", "value": "25180 cpm and 23891 cpm and 26474 cpm"}, {"measurement": "TB total binding, mean", "setting": "cortex, 0.3 mg/kg s.c.", "value": 25182, "unit": "cpm"}, {"measurement": "percent specific binding remaining compared to controls", "setting": "cortex, 0.3 mg/kg s.c.", "value": 98, "unit": "%"}, {"measurement": "NS non specific binding, individual animals", "setting": "cortex, 1 mg/kg s.c.", "value": "2623 cpm and 2705 cpm and 2642 cpm"}, {"measurement": "NS non specific binding, mean", "setting": "cortex, 1 mg/kg s.c.", "value": 2657, "unit": "cpm"}, {"measurement": "SB specific binding, individual animals", "setting": "cortex, 1 mg/kg s.c.", "value": "19722 cpm and 23378 cpm and 21824 cpm"}, {"measurement": "SB specific binding, mean", "setting": "cortex, 1 mg/kg s.c.", "value": 21641, "unit": "cpm"}, {"measurement": "TB total binding, individual animals", "setting": "cortex, 1 mg/kg s.c.", "value": "22345 cpm and 26063 cpm and 24466 cpm"}, {"measurement": "TB total binding, mean", "setting": "cortex, 1 mg/kg s.c.", "value": 24298, "unit": "cpm"}, {"measurement": "percent specific binding remaining compared to controls", "setting": "cortex, 1 mg/kg s.c.", "value": 94, "unit": "%"}, {"measurement": "NS non specific binding, individual animals", "setting": "cortex, 3 mg/kg s.c.", "value": "2519 cpm and 2511 cpm and 2559 cpm"}, {"measurement": "NS non specific binding, mean", "setting": "cortex, 3 mg/kg s.c.", "value": 2530, "unit": "cpm"}, {"measurement": "SB specific binding, individual animals", "setting": "cortex, 3 mg/kg s.c.", "value": "20444 cpm and 19624 cpm and 21700 cpm"}, {"measurement": "SB specific binding, mean", "setting": "cortex, 3 mg/kg s.c.", "value": 20658, "unit": "cpm"}, {"measurement": "TB total binding, individual animals", "setting": "cortex, 3 mg/kg s.c.", "value": "22963 cpm and 22335 cpm and 24259 cpm"}, {"measurement": "TB total binding, mean", "setting": "cortex, 3 mg/kg s.c.", "value": 23186, "unit": "cpm"}, {"measurement": "percent specific binding remaining compared to controls", "setting": "cortex, 3 mg/kg s.c.", "value": 90, "unit": "%"}, {"measurement": "NS non specific binding, individual animals", "setting": "cortex, 10 mg/kg s.c.", "value": "2527 cpm and 2575 cpm and 2740 cpm"}, {"measurement": "NS non specific binding, mean", "setting": "cortex, 10 mg/kg s.c.", "value": 2614, "unit": "cpm"}, {"measurement": "SB specific binding, individual animals", "setting": "cortex, 10 mg/kg s.c.", "value": "19525 cpm and 18340 cpm and 19640 cpm"}, {"measurement": "SB specific binding, mean", "setting": "cortex, 10 mg/kg s.c.", "value": 19168, "unit": "cpm"}, {"measurement": "TB total binding, individual animals", "setting": "cortex, 10 mg/kg s.c.", "value": "22052 cpm and 20915 cpm and 22380 cpm"}, {"measurement": "TB total binding, mean", "setting": "cortex, 10 mg/kg s.c.", "value": 21782, "unit": "cpm"}, {"measurement": "percent specific binding remaining compared to controls", "setting": "cortex, 10 mg/kg s.c.", "value": 84, "unit": "%"}, {"measurement": "NS non specific binding, individual animals", "setting": "hippocampus, 0.3 mg/kg s.c.", "value": "2116 cpm and 2294 cpm and 2092 cpm"}, {"measurement": "NS non specific binding, mean", "setting": "hippocampus, 0.3 mg/kg s.c.", "value": 2167, "unit": "cpm"}, {"measurement": "SB specific binding, individual animals", "setting": "hippocampus, 0.3 mg/kg s.c.", "value": "12566 cpm and 13303 cpm and 16338 cpm"}, {"measurement": "SB specific binding, mean", "setting": "hippocampus, 0.3 mg/kg s.c.", "value": 14069, "unit": "cpm"}, {"measurement": "TB total binding, individual animals", "setting": "hippocampus, 0.3 mg/kg s.c.", "value": "14682 cpm and 15597 cpm and 18430 cpm"}, {"measurement": "TB total binding, mean", "setting": "hippocampus, 0.3 mg/kg s.c.", "value": 16238, "unit": "cpm"}, {"measurement": "percent specific binding remaining compared to controls", "setting": "hippocampus, 0.3 mg/kg s.c.", "value": 113, "unit": "%"}, {"measurement": "NS non specific binding, individual animals", "setting": "hippocampus, 1 mg/kg s.c.", "value": "2144 cpm and 1953 cpm and 1913 cpm"}, {"measurement": "NS non specific binding, mean", "setting": "hippocampus, 1 mg/kg s.c.", "value": 2003, "unit": "cpm"}, {"measurement": "SB specific binding, individual animals", "setting": "hippocampus, 1 mg/kg s.c.", "value": "12048 cpm and 15010 cpm and 14100 cpm"}, {"measurement": "SB specific binding, mean", "setting": "hippocampus, 1 mg/kg s.c.", "value": 13719, "unit": "cpm"}, {"measurement": "TB total binding, individual animals", "setting": "hippocampus, 1 mg/kg s.c.", "value": "14192 cpm and 16963 cpm and 16013 cpm"}, {"measurement": "TB total binding, mean", "setting": "hippocampus, 1 mg/kg s.c.", "value": 15723, "unit": "cpm"}, {"measurement": "percent specific binding remaining compared to controls", "setting": "hippocampus, 1 mg/kg s.c.", "value": 110, "unit": "%"}, {"measurement": "NS non specific binding, individual animals", "setting": "hippocampus, 3 mg/kg s.c.", "value": "1859 cpm and 1984 cpm and 1959 cpm"}, {"measurement": "NS non specific binding, mean", "setting": "hippocampus, 3 mg/kg s.c.", "value": 1934, "unit": "cpm"}, {"measurement": "SB specific binding, individual animals", "setting": "hippocampus, 3 mg/kg s.c.", "value": "11172 cpm and 9232 cpm and 10980 cpm"}, {"measurement": "SB specific binding, mean", "setting": "hippocampus, 3 mg/kg s.c.", "value": 10461, "unit": "cpm"}, {"measurement": "TB total binding, individual animals", "setting": "hippocampus, 3 mg/kg s.c.", "value": "13031 cpm and 11216 cpm and 12939 cpm"}, {"measurement": "TB total binding, mean", "setting": "hippocampus, 3 mg/kg s.c.", "value": 12395, "unit": "cpm"}, {"measurement": "percent specific binding remaining compared to controls", "setting": "hippocampus, 3 mg/kg s.c.", "value": 84, "unit": "%"}, {"measurement": "NS non specific binding, individual animals", "setting": "hippocampus, 10 mg/kg s.c.", "value": "1886 cpm and 2078 cpm and 2037 cpm"}, {"measurement": "NS non specific binding, mean", "setting": "hippocampus, 10 mg/kg s.c.", "value": 2000, "unit": "cpm"}, {"measurement": "SB specific binding, individual animals", "setting": "hippocampus, 10 mg/kg s.c.", "value": "11059 cpm and 10041 cpm and 8937 cpm"}, {"measurement": "SB specific binding, mean", "setting": "hippocampus, 10 mg/kg s.c.", "value": 10012, "unit": "cpm"}, {"measurement": "TB total binding, individual animals", "setting": "hippocampus, 10 mg/kg s.c.", "value": "12945 cpm and 12119 cpm and 10974 cpm"}, {"measurement": "TB total binding, mean", "setting": "hippocampus, 10 mg/kg s.c.", "value": 12013, "unit": "cpm"}, {"measurement": "percent specific binding remaining compared to controls", "setting": "hippocampus, 10 mg/kg s.c.", "value": 80, "unit": "%"}]}
